# According to patent US5892018A, “DNA sequences encoding a brain sodium channel protein” (priority 1997, dated 1999):
# Ends that are not written are not given here.
# Target: T1, BNC1 (Homo sapiens, UniProt Q16515)
# T1 construct: a 1539-bp open reading frame extending to the 3' stop codon; expressed in transfected cells; host or cells: Xenopus laevis oocytes, nuclear injection of BNC1 cDNA in pMT3
# T1 sequence (Q16515 1-512 T495A): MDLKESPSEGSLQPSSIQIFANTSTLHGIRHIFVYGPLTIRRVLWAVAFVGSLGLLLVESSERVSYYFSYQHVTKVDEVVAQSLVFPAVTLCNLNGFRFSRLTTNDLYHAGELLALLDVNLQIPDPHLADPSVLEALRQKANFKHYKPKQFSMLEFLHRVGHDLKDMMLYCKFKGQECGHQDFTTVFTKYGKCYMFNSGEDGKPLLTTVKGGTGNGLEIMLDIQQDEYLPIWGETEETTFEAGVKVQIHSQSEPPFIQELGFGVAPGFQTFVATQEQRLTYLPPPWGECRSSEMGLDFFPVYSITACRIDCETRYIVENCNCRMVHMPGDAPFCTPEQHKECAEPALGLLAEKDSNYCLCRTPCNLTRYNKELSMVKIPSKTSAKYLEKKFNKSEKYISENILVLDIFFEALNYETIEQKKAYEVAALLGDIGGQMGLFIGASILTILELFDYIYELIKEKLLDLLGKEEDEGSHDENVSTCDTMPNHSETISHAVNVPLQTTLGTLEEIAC
# Test: Two-electrode voltage clamp of Xenopus oocytes expressing BNC1
# Format: cell-based
# Details: for activation of BNC1 current by agonist peptide: peptide added to bathing solution at 1-30 μM
# Method: Expression of BNC1 in Xenopus laevis Oocytes--BNC1 was expressed in Xenopus oocytes by nuclear injection of BNC1 cDNA cloned into pMT3 (0.2-0.3 ng). Control oocytes were injected with H2 O. α-, β-, and γhENaC (αβγhENaC) were expressed as described previously. Oocytes were maintained at 18° C. in modified Barth's solution, and current was measured by two-electrode voltage clamp 1 day after injection. During voltage clamp, oocytes were bathed in 116 mM NaCl, 2 mM KCl, 0.4 mM CaCl2, 1 mM Mg Cl2, 5 mM Hepes (pH 7.4 with NaOH). To determine ionic selectivity, NaCl was replaced with LiCl or KCl. Current-voltage relationships were determined by stepping from a holding potential of -60 mV to potentials between -100 and +40 mV for 1 second. Amiloride-sensitive current was obtained by subtracting current during exposure to a maximal concentration of amiloride (100 μM) from current prior to amiloride addition. Phe-Met-Arg-Phe-NH2 (FMRF-am-ide), Phe-Leu-Phe-Gln-Pro-Gln-Arg-Phe-NH2 (F-8-F-amide), and Ala-Gly-Glu-Gly-Leu-Ser-Ser-Pro-Phe-Trp-Ser-Leu-Ala-Ala-Pro-Gln-Arg-Phe-NH2 (A-18-F-amide) were obtained from Sigma and were added to the bathing solution at 1-30 μM.
Molecule,"IC50 (BNC1 expressed in Xenopus oocytes, plotted as fraction of response to 100 μM amiloride, n=4 (FIG. 8), read-out: half-maximal inhibition of Na+ current)","inward current reversibly inhibited by amiloride (amiloride-sensitive current) (BNC1 in Xenopus oocytes, holding potential -60 mV, amiloride 100 μM, n=12 (FIG. 6))",activation of BNC1 current by agonist peptide (BNC1 in Xenopus oocytes)
N=C(N)NC(=O)c1nc(Cl)c(N)nc1N [amiloride],147 ± 23 nM,14.0±2.7 nA,–
"Ala-Gly-Glu-Gly-Leu-Ser-Ser-Pro-Phe-Trp-Ser-Leu-Ala-Ala-Pro-Gln-Arg-Phe-NH2 (AGEGLSSPFWSLAAPQRF-NH2) [A-18-F-amide, related mammalian peptide, obtained from Sigma]",–,–,not activated
"CC(C)C[C@H](NC(=O)[C@@H](N)Cc1ccccc1)C(=O)N[C@@H](Cc1ccccc1)C(=O)N[C@@H](CCC(N)=O)C(=O)N1CCC[C@H]1C(=O)N[C@@H](CCC(N)=O)C(=O)N[C@@H](CCCNC(=N)N)C(=O)N[C@@H](Cc1ccccc1)C(N)=O [F-8-F-amide, Phe-Leu-Phe-Gln-Pro-Gln-Arg-Phe-NH2]",–,–,not activated
